Biological target: T1, Human RET kinase cytoplasmic domain (Homo sapiens, UniProt P07949)
T1 construct: made in house
T1 sequence (P07949 658-1114): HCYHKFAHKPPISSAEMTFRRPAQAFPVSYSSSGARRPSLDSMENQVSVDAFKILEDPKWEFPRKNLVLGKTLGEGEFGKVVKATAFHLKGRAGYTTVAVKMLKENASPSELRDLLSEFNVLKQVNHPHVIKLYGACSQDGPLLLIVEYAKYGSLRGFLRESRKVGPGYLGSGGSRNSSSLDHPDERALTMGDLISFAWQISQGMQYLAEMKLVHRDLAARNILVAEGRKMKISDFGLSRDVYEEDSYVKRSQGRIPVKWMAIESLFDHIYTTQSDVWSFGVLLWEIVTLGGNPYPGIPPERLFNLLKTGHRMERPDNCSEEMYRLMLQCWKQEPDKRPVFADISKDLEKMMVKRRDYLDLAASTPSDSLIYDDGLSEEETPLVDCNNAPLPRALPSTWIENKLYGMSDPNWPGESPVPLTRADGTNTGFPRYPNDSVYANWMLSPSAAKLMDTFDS
Test: RET kinase enzymatic assay
Assay type: biochemical
Protocol: GST-RET was purified using glutathione sepharose chromatography. The RET kinase enzymatic assay was performed in a total volume of 10 uL with increasing concentrations of RET kinase inhibitor as a singlet in a 384 well format as follows: RET inhibitor compound plates are prepared by adding 100 nL of RET inhibitor at different concentrations to a 384-well plate. 5 μL/well of a 2× enzyme mix (50 mM HEPES (4-(2-hydroxyethyl)-1-piperazineethanesulfonic acid); 1 mM CHAPS (3-[(3-cholamidopropyl)dimethylammonio]-1-propanesulfonate); 0.1 mg/mL BSA (bovine serum albumin); 1 mM DTT (dithiothreitol); 0.2 nM RET kinase) was added to the 384-well plate and incubated for 30 minutes at 23° C. 5 µL/well of a 2× substrate mix (50 mM HEPES; 1 mM CHAPS; 0.1 mg/mL BSA; 20 μM adenosine triphosphate; 20 mM MgCl2 and 1 μM biotinylated peptide substrate) was added and incubated for 1 hour at 23° C. […] IC50s were fitted using GraphPad Prism to a sigmoidal dose response.

Row | Compound | IC50
1 | CC1(Oc2ccc(NC(=O)Nc3ccc(-c4c[nH]c(=O)c5occc45)cc3F)cc2C(F)(F)F)COC1 [Example 1, 1-(2-Fluoro-4-(7-oxo-6,7-dihydrofuro[2,3-c]pyridin-4-yl)phenyl)-3-(4-((3-methyloxetan-3-yl)oxy)-3-(trifluoromethyl)phenyl)urea] | < 100 nM
2 | CCOc1cc(-c2ccc(NC(=O)Nc3cc(-n4cnc(C)c4)cc(C(F)(F)F)c3)c(F)c2)c[nH]c1=O [Example 2, 1-(4-(5-Ethoxy-6-oxo-1,6-dihydropyridin-3-yl)-2-fluorophenyl)-3-(3-(4-methyl-1H-imidazol-1-yl)-5-(trifluoromethyl)phenyl)urea] | < 100 nM
3 | CCOc1ccc(NC(=O)Nc2ccc(-c3c[nH]c(=O)c4c3CCC4)cc2F)cc1C(F)(F)F [Example 3, 1-(4-Ethoxy-3-(trifluoromethyl)phenyl)-3-(2-fluoro-4-(1-oxo-2,5,6,7-tetrahydro-1H-cyclopenta[c]pyridin-4-yl)phenyl)urea] | < 100 nM
4 | CC1(Oc2ccc(NC(=O)Nc3ccc(-c4c[nH]c(=O)c5cn[nH]c45)cc3F)cc2C(F)(F)F)COC1 [Example 4, 1-(2-Fluoro-4-(4-oxo-4,5-dihydro-1H-pyrazolo[4,3-c]pyridin-7-yl)phenyl)-3-(4-((3-methyloxetan-3-yl)oxy)-3-(trifluoromethyl)phenyl)urea] | < 100 nM
5 | CCOc1cc(-c2ccc(NC(=O)Nc3ccc(OC(C)C)c(C(F)(F)F)c3)c(C)n2)c[nH]c1=O [Example 5, 1-(5′-Ethoxy-6-methyl-6′-oxo-1′,6′-dihydro-[2,3′-bipyridin]-5-yl)-3-(4-isopropoxy-3-(trifluoromethyl)phenyl)urea] | < 100 nM
6 | CCOc1cc(-c2ccc(NC(=O)Nc3ccc(OC(C)C)c(C(F)F)c3)c(C)n2)c[nH]c1=O [Example 6, 1-(3-(Difluoromethyl)-4-isopropoxyphenyl)-3-(5′-ethoxy-6-methyl-6′-oxo-1′,6′-dihydro-[2,3′-bipyridin]-5-yl)urea] | < 100 nM
7 | Cc1cc(-c2ccc(NC(=O)Nc3ccc(OC4(C)COC4)c(C(F)(F)F)c3)c(F)c2)c[nH]c1=O [Example 7, 1-(2-fluoro-4-(5-methyl-6-oxo-1,6-dihydropyridin-3-yl)phenyl)-3-(4-((3-methyloxetan-3-yl)oxy)-3-(trifluoromethyl)phenyl)urea] | < 100 nM
8 | CCOc1cc(-c2ccc(NC(=O)Nc3ccc(OC(C)C)c(C(F)(F)F)c3)nc2C)c[nH]c1=O [Example 8, 1-(5′-Ethoxy-2-methyl-6′-oxo-1′,6′-dihydro-[3,3′-bipyridin]-6-yl)-3-(4-isopropoxy-3-(trifluoromethyl)phenyl)urea] | < 100 nM
9 | CCOc1cc(-c2cnc(NC(=O)Nc3ccc(CC(C)(C)CO)c(C(F)(F)F)c3)c(C)c2)c[nH]c1=O [Example 9, 1-(5′-Ethoxy-5-methyl-6′-oxo-1′,6′-dihydro-[3,3′-bipyridin]-6-yl)-3-(4-(3-hydroxy-2,2-dimethylpropyl)-3-(trifluoromethyl)phenyl)urea] | < 100 nM
10 | CCOc1cc(-c2ncc(NC(=O)Nc3ccc(C(C)O)c(C(F)(F)F)c3)c(C)n2)c[nH]c1=O (centres unmarked) [Example 10, 1-(2-(5-Ethoxy-6-oxo-1,6-dihydropyridin-3-yl)-4-methylpyrimidin-5-yl)-3-(4-(1-hydroxyethyl)-3-(trifluoromethyl)phenyl)urea] | < 100 nM
11 | CCOc1cc(-c2ccc(NC(=O)Nc3cc(C(C)(C)C(F)(F)F)on3)c(F)c2)c[nH]c1=O [Example 11, 1-(4-(5-Ethoxy-6-oxo-1,6-dihydropyridin-3-yl)-2-fluorophenyl)-3-(5-(1,1,1-trifluoro-2-methylpropan-2-yl)isoxazol-3-yl)urea] | < 100 nM
12 | CCOc1cc(=O)[nH]cc1-c1ncc(NC(=O)Nc2ccc(CC3(C)COC3)c(C(F)(F)F)c2)c(C)n1 [Example 12, 1-(2-(4-Ethoxy-6-oxo-1,6-dihydropyridin-3-yl)-4-methylpyrimidin-5-yl)-3-(4-((3-methyloxetan-3-yl)methyl)-3-(trifluoromethyl)phenyl)urea] | < 100 nM
13 | CCOc1cc(-c2ncc(NC(=O)Nc3ccc(CC4(C)COC4)c(C(F)(F)F)c3)c(C)n2)c[nH]c1=O [Example 13, 1-(2-(5-Ethoxy-6-oxo-1,6-dihydropyridin-3-yl)-4-methylpyrimidin-5-yl)-3-(4-((3-methyloxetan-3-yl)methyl)-3-(trifluoromethyl)phenyl)urea] | < 100 nM
14 | CCOc1cc(-c2ncc(NC(=O)Nc3ccc(CC(C)(C)C#N)c(C(F)(F)F)c3)c(C)n2)c[nH]c1=O [Example 14, 1-(4-(2-Cyano-2-methylpropyl)-3-(trifluoromethyl)phenyl)-3-(2-(5-ethoxy-6-oxo-1,6-dihydropyridin-3-yl)-4-methylpyrimidin-5-yl)urea] | < 100 nM
15 | CCOc1cc(-c2ncc(NC(=O)Nc3cc(C(C)(C)C(F)(F)F)on3)c(C)n2)c[nH]c1=O [Example 15, 1-(2-(5-Ethoxy-6-oxo-1,6-dihydropyridin-3-yl)-4-methylpyrimidin-5-yl)-3-(5-(1,1,1-trifluoro-2-methylpropan-2-yl)isoxazol-3-yl)urea] | < 100 nM
16 | CCOc1cc(-c2cnc(NC(=O)Nc3cc(C(C)(C)C(F)(F)F)on3)c(C)n2)c[nH]c1=O [Example 16, 1-(5-(5-Ethoxy-6-oxo-1,6-dihydropyridin-3-yl)-3-methylpyrazin-2-yl)-3-(5-(1,1,1-trifluoro-2-methylpropan-2-yl)isoxazol-3-yl)urea] | < 100 nM
17 | O=C(Nc1ccc(-c2ccc(=O)[nH]c2)cc1)Nc1ccc(CN2CCNCC2)c(C(F)(F)F)c1 [Example 17, 1-(4-(6-Oxo-1,6-dihydropyridin-3-yl)phenyl)-3-(4-(piperazin-1-ylmethyl)-3-(trifluoromethyl)phenyl)urea] | < 100 nM
18 | CCOc1cc(=O)[nH]cc1-c1ccc(NC(=O)Nc2ccc(OC3(C)COC3)c(C(F)(F)F)c2)c(F)c1 [Example 18, 1-(4-(4-Ethoxy-6-oxo-1,6-dihydropyridin-3-yl)-2-fluorophenyl)-3-(4-((3-methyloxetan-3-yl)oxy)-3-(trifluoromethyl)phenyl)urea] | < 100 nM
19 | CC1(Oc2ccc(NC(=O)Nc3ccc(-c4c[nH]c(=O)c5ccoc45)cc3F)cc2C(F)(F)F)COC1 [Example 19, 1-(2-Fluoro-4-(4-oxo-4,5-dihydrofuro[3,2-c]pyridin-7-yl)phenyl)-3-(4-((3-methyloxetan-3-yl)oxy)-3-(trifluoromethyl)phenyl)urea] | < 100 nM
20 | CC1(Oc2ccc(NC(=O)Nc3ccc(-c4c[nH]c(=O)c(OC5CC5)c4)cc3F)cc2C(F)(F)F)COC1 [Example 20, 1-(4-(5-Cyclopropoxy-6-oxo-1,6-dihydropyridin-3-yl)-2-fluorophenyl)-3-(4-((3-methyloxetan-3-yl)oxy)-3-(trifluoromethyl)phenyl)urea] | < 100 nM
21 | COc1cc(-c2ccc(NC(=O)Nc3ccc(OC4(C)COC4)c(C(F)(F)F)c3)cc2)c[nH]c1=O [Example 21, 1-(4-(5-Methoxy-6-oxo-1,6-dihydropyridin-3-yl)phenyl)-3-(4-((3-methyloxetan-3-yl)oxy)-3-(trifluoromethyl)phenyl)urea] | < 100 nM
22 | CC1(Oc2ccc(NC(=O)Nc3ccc(-c4c[nH]c(=O)c5c4OCC5)cc3F)cc2C(F)(F)F)COC1 [Example 22, 1-(2-Fluoro-4-(4-oxo-2,3,4,5-tetrahydrofuro[3,2-c]pyridin-7-yl)phenyl)-3-(4-((3-methyloxetan-3-yl)oxy)-3-(trifluoromethyl)phenyl)urea] | < 100 nM
23 | CCOc1cc(-c2ncc(NC(=O)Nc3ccc(C(C)(C)C#N)c(C(F)(F)F)c3)c(C)n2)c[nH]c1=O [Example 23, 1-(4-(2-Cyanopropan-2-yl)-3-(trifluoromethyl)phenyl)-3-(2-(5-ethoxy-6-oxo-1,6-dihydropyridin-3-yl)-4-methylpyrimidin-5-yl)urea] | < 100 nM
24 | CCOc1cc(=O)[nH]cc1-c1ncc(NC(=O)Nc2ccc(C(C)C#N)c(C(F)(F)F)c2)c(C)n1 (centres unmarked) [Example 24, 1-(4-(1-Cyanoethyl)-3-(trifluoromethyl)phenyl)-3-(2-(4-ethoxy-6-oxo-1,6-dihydropyridin-3-yl)-4-methylpyrimidin-5-yl)urea] | < 100 nM
25 | CCOc1cc(-c2ncc(NC(=O)Nc3ccc(C(C)C#N)c(C(F)(F)F)c3)c(C)n2)c[nH]c1=O (centres unmarked) [Example 25, 1-(4-(1-Cyanoethyl)-3-(trifluoromethyl)phenyl)-3-(2-(5-ethoxy-6-oxo-1,6-dihydropyridin-3-yl)-4-methylpyrimidin-5-yl)urea] | < 100 nM
26 | CCOc1cc(=O)[nH]cc1-c1ncc(NC(=O)Nc2ccc(C(C)(C)C#N)c(C(F)(F)F)c2)c(C)n1 [Example 26, 1-(4-(2-Cyanopropan-2-yl)-3-(trifluoromethyl)phenyl)-3-(2-(4-ethoxy-6-oxo-1,6-dihydropyridin-3-yl)-4-methylpyrimidin-5-yl)urea] | < 100 nM
